Test results: the supplement of paper PMC10307832

What was measured:
Experiment in all cases: relative viability (nuclei count vs DMSO), 5 days (fraction); higher = more cells survive
[1] = compound: O=C(Nc1c[nH]nc1-c1nc2ccc(CN3CCOCC3)cc2[nH]1)NC1CC1 [AT9283] + O=C(CCCCCCC(=O)Nc1ccccc1)NO [Vorinostat] (partner 1 µM)
Procedure, shortened: (§1)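 Nuclei were stained with Hoechst during a one-step fixation (final 0.05% Triton X-100, 1% formaldehyde, 1 ug/ml Hoechst) carried out 5 days after dosing, then counted on 4× images. The cells, lung cancer lines in 1536-well plates, had been dosed by pin tool the day after seeding with one drug alone or a fixed anchor-drug dose plus five library-drug doses (not always all listed) in √10 steps. Relative viability is the nuclei count in treated wells divided by that in vehicle wells, and each value is the median of duplicate plates.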

[2] = compound: O=C(Nc1c[nH]nc1-c1nc2ccc(CN3CCOCC3)cc2[nH]1)NC1CC1 [AT9283] + CC1(C)CCC(c2ccc(Cl)cc2)=C(CN2CCN(c3ccc(C(=O)NS(=O)(=O)c4ccc(N[C@H](CCN5CCOCC5)CSc5ccccc5)c(S(=O)(=O)C(F)(F)F)c4)cc3)CC2)C1 [Navitoclax] (partner 0.5 µM)
Procedure, shortened: as §1

[3] = compound: O=C(Nc1c[nH]nc1-c1nc2ccc(CN3CCOCC3)cc2[nH]1)NC1CC1 [AT9283] + CS(=O)(=O)CCNCc1ccc(-c2ccc3ncnc(Nc4ccc(OCc5cccc(F)c5)c(Cl)c4)c3c2)o1 [Lapatinib] (partner 2 µM)
Procedure, shortened: as §1

Cell Line	relative viability ([1]; first compound 0.003 µM)	relative viability ([1]; first compound 0.03 µM)	relative viability ([1]; first compound 0.09487 µM)	relative viability ([1]; first compound 0.3 µM)	relative viability ([2]; first compound 0.003 µM)	relative viability ([2]; first compound 0.03 µM)	relative viability ([2]; first compound 0.09487 µM)	relative viability ([2]; first compound 0.3 µM)	relative viability ([3]; first compound 0.003 µM)	relative viability ([3]; first compound 0.03 µM)	relative viability ([3]; first compound 0.09487 µM)	relative viability ([3]; first compound 0.3 µM)
NCI-H1437	0.833	0.469	0.312	0.295	1.17	0.832	0.265	0.178	0.702	0.246	0.157	0.155
NCI-H1650	0.608	0.487	0.375	0.194	1.34	1	0.29	0.232	0.697	0.287	0.225	0.115
NCI-H1651	0.449	0.39	0.393	0.218	1.09	0.956	0.489	0.231	0.83	0.481	0.215	0.279
NCI-H1666	1.18	0.769	0.527	0.606	1.08	0.885	0.432	0.315	0.634	0.386	0.243	0.321
NCI-H1734	0.757	0.305	0.259	0.237	0.839	0.318	0.131	0.127	0.988	0.687	0.291	0.249
NCI-H1755	0.74	0.784	0.54	0.398	0.988	0.876	0.482	0.281	1.08	0.775	0.357	0.399
NCI-H1793	0.709	0.349	0.278	0.281	0.533	0.429	0.231	0.164	0.743	0.273	0.16	0.256
NCI-H1915	0.489	0.466	0.175	0.152	0.657	0.72	0.504	0.174	0.885	0.931	0.477	0.217
NCI-H1944	0.532	0.274	0.214	0.205	1.03	0.865	0.652	0.235	0.731	0.598	0.271	0.204
NCI-H1975	0.742	0.666	0.504	0.281	1.11	1.18	0.971	0.282	0.891	0.225	0.208	0.196
NCI-H1993	0.806	0.435	0.375	0.363	0.872	0.905	0.586	0.466	0.813	0.672	0.631	0.632
NCI-H2009	0.742	0.674	0.29	0.147	1.26	0.681	0.391	0.284	1.01	0.337	0.31	0.305
NCI-H2023	0.527	0.344	0.149	0.144	1.04	0.71	0.383	0.119	0.778	0.133	0.122	0.0743
NCI-H2085	0.775	0.755	0.631	0.305	1.05	0.815	0.671	0.244	0.798	0.36	0.297	0.382
